Measurements as given in ChEMBL document CHEMBL1201862, “PubChem BioAssay data set” (2004).
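Where inhibition never reached the appropriate level, the endpoint shown equals the highest concentration tested. Otherwise, values were interpolated linearly from a five-concentration, 48-hour dose response in 96-well plates. GI50: concentration for 50% inhibition of growth.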 Activity calls are given as the source filed them. Cut-off read from the data, not from the text of the source: active = GI50 up to about 1.1 µM and inactive = higher.

What was measured:
Assay in all cases: growth of human tumour cells (NCI), 48 h
SN12C = tested on: SN12C
LOX IMVI = tested on: LOX IMVI
HL-60 = tested on: HL-60
NCI-H226 = tested on: NCI-H226
Malme-3M = tested on: Malme-3M
SK-MEL-28 = tested on: SK-MEL-28
SK-OV-3 = tested on: SK-OV-3
M19-MEL = tested on: M19-MEL
A549 = tested on: A549
SF-268 = tested on: SF-268
CAKI-1 = tested on: CAKI-1
IGROV-1 = tested on: IGROV-1
SR = tested on: SR
HCT-116 = tested on: HCT-116
DMS-273 = tested on: DMS-273
HOP-18 = tested on: HOP-18
SK-MEL-5 = tested on: SK-MEL-5
HCT-15 = tested on: HCT-15
HOP-62 = tested on: HOP-62
NCI-H522 = tested on: NCI-H522
OVCAR-3 = tested on: OVCAR-3
M14 = tested on: M14
SNB-75 = tested on: SNB-75
CCRF-CEM = tested on: CCRF-CEM
MOLT-4 = tested on: MOLT-4
KM-20L2 = tested on: KM-20L2
UACC-257 = tested on: UACC-257
ACHN = tested on: ACHN
NCI-H23 = tested on: NCI-H23
COLO 205 = tested on: COLO 205
OVCAR-8 = tested on: OVCAR-8
DMS-114 = tested on: DMS-114
K562 = tested on: K562
KM12 = tested on: KM12
UO-31 = tested on: UO-31
SK-MEL-2 = tested on: SK-MEL-2
U-251 = tested on: U-251
SF-295 = tested on: SF-295
SF-539 = tested on: SF-539
TK-10 = tested on: TK-10
OVCAR-4 = tested on: OVCAR-4
786-0 = tested on: 786-0
SNB-78 = tested on: SNB-78
RXF 393 = tested on: RXF 393
DLD-1 = tested on: DLD-1
NCI-H460 = tested on: NCI-H460
LXFL 529 = tested on: LXFL 529
OVCAR-5 = tested on: OVCAR-5
HT-29 = tested on: HT-29
UACC-62 = tested on: UACC-62
SW-620 = tested on: SW-620
RPMI-8226 = tested on: RPMI-8226
NCI/ADR-RES = tested on: NCI/ADR-RES
HCC 2998 = tested on: HCC 2998
MCF7 = tested on: MCF7
EKVX = tested on: EKVX
HOP-92 = tested on: HOP-92
A498 = tested on: A498
SNB-19 = tested on: SNB-19
XF498 = tested on: XF498

## COc1ccc(C(C#N)NNC(=O)c2ccccc2O)cc1OC (stereo unspecified)
SN12C
  GI50: 0.767 µM (active)
LOX IMVI
  GI50: 0.735 µM (active)
HL-60
  GI50: 1.76 µM (inactive)
NCI-H226
  GI50: 1.96 µM (inactive)
Malme-3M
  GI50: 11.7 µM (inactive)
SK-MEL-28
  GI50: 28.6 µM (inactive)
SK-OV-3
  GI50: 0.889 µM (active)
M19-MEL
  GI50: 6.92 µM (inactive)
A549
  GI50: 0.377 µM (active)
SF-268
  GI50: 0.468 µM (active)
CAKI-1
  GI50: 0.394 µM (active)
IGROV-1
  GI50: 0.547 µM (active)
SR
  GI50: 0.463 µM (active)
HCT-116
  GI50: 0.401 µM (active)
DMS-273
  GI50: 0.364 µM (active)
HOP-18
  GI50: 10 µM (inactive)
SK-MEL-5
  GI50: 8.95 µM (inactive)
HCT-15
  GI50: 0.893 µM
HOP-62
  GI50: 13.2 µM (inactive)
NCI-H522
  GI50: 3.28 µM (inactive)
OVCAR-3
  GI50: 2.55 µM (inactive)
M14
  GI50: 0.75 µM (active)
SNB-75
  GI50: 0.331 µM (active)
CCRF-CEM
  GI50: 1.21 µM (inactive)
MOLT-4
  GI50: 3.04 µM (inactive)
KM-20L2
  GI50: 22 µM (inactive)
UACC-257
  GI50: 3.84 µM (inactive)
ACHN
  GI50: 0.384 µM (active)
NCI-H23
  GI50: 0.746 µM (active)
COLO 205
  GI50: 35.6 µM (inactive)
OVCAR-8
  GI50: 1.46 µM (inactive)
DMS-114
  GI50: 0.573 µM (active)
K562
  GI50: 0.356 µM (active)
KM12
  GI50: 0.807 µM (active)
UO-31
  GI50: 0.379 µM (active)
SK-MEL-2
  GI50: 0.667 µM (active)
U-251
  GI50: 0.45 µM (active)
SF-295
  GI50: 1.24 µM (inactive)
SF-539
  GI50: 0.705 µM (active)
TK-10
  GI50: 14.6 µM (inactive)
OVCAR-4
  GI50: 1.7 µM (inactive)
786-0
  GI50: 1.24 µM (inactive)
SNB-78
  GI50: 0.685 µM (active)
RXF 393
  GI50: 0.902 µM (active)
DLD-1
  GI50: 0.9 µM (active)
NCI-H460
  GI50: 0.478 µM (active)
LXFL 529
  GI50: 0.526 µM (active)
OVCAR-5
  GI50: 15.1 µM (inactive)
HT-29
  GI50: 30.1 µM (inactive)
UACC-62
  GI50: 0.31 µM (active)
SW-620
  GI50: 4.56 µM (inactive)
RPMI-8226
  GI50: 4.24 µM (inactive)

## Cc1ccc(N2C(=O)C3CSCN3C2=O)cc1 (stereo unspecified)
NCI/ADR-RES
  GI50: > 100 µM (inactive)
SN12C
  GI50: > 100 µM (inactive)
LOX IMVI
  GI50: > 100 µM (inactive)
HL-60
  GI50: > 100 µM (inactive)
NCI-H226
  GI50: > 100 µM (inactive)
HCC 2998
  GI50: > 100 µM (inactive)
MCF7
  GI50: > 100 µM (inactive)
SK-MEL-28
  GI50: 15.8 µM (inactive)
EKVX
  GI50: > 100 µM (inactive)
SK-OV-3
  GI50: > 100 µM (inactive)
M19-MEL
  GI50: > 100 µM (inactive)
A549
  GI50: > 100 µM (inactive)
SF-268
  GI50: > 100 µM (inactive)
CAKI-1
  GI50: > 100 µM (inactive)
IGROV-1
  GI50: > 100 µM (inactive)
HCT-116
  GI50: 2.46 µM (inactive)
HOP-18
  GI50: > 100 µM (inactive)
SK-MEL-5
  GI50: > 100 µM (inactive)
HCT-15
  GI50: > 100 µM
HOP-62
  GI50: > 100 µM (inactive)
NCI-H522
  GI50: > 100 µM (inactive)
OVCAR-3
  GI50: > 100 µM (inactive)
HOP-92
  GI50: > 100 µM (inactive)
SNB-75
  GI50: > 100 µM (inactive)
CCRF-CEM
  GI50: > 100 µM (inactive)
MOLT-4
  GI50: > 100 µM (inactive)
UACC-257
  GI50: > 100 µM (inactive)
NCI-H23
  GI50: > 100 µM (inactive)
COLO 205
  GI50: > 100 µM (inactive)
OVCAR-8
  GI50: > 100 µM (inactive)
DMS-114
  GI50: > 100 µM (inactive)
K562
  GI50: > 100 µM (inactive)
KM12
  GI50: > 100 µM (inactive)
UO-31
  GI50: > 100 µM (inactive)
SK-MEL-2
  GI50: > 100 µM (inactive)
U-251
  GI50: > 100 µM (inactive)
A498
  GI50: > 100 µM (inactive)
SF-295
  GI50: > 100 µM (inactive)
SF-539
  GI50: > 100 µM (inactive)
OVCAR-4
  GI50: > 100 µM (inactive)
SNB-19
  GI50: > 100 µM (inactive)
DLD-1
  GI50: > 100 µM (inactive)
NCI-H460
  GI50: > 100 µM (inactive)
OVCAR-5
  GI50: > 100 µM (inactive)
HT-29
  GI50: > 100 µM (inactive)
UACC-62
  GI50: > 100 µM (inactive)
SW-620
  GI50: > 100 µM (inactive)
XF498
  GI50: > 100 µM (inactive)
RPMI-8226
  GI50: > 100 µM (inactive)
